row,SMILES,melting point
1,CCCc1nn2ncc(C(=O)OCC)c2n1Cc1ccc(-c2ccccc2-c2nnnn2C(c2ccccc2)(c2ccccc2)c2ccccc2)cc1,106 to 108 °C
2,CS(=O)(=O)Nc1ccc(OCC2CCN(C(=O)OCc3ccccc3)CC2)cc1,150 to 151 °C
3,O=C(NO)NCCc1cc2ccccc2o1,157 to 158 °C
4,CCOC(=O)c1cnc2c3cc(N)ccc3c(C)cn2c1=O,245 to 248 °C
5,CCCCOCCOCCOc1ccc(-c2ccc(C(=O)O)cc2)cc1,174 to 176 °C
6,CC(C)N(CCCC(=O)OC1c2ccccc2C(=O)N1c1ccc2ccc(Cl)nc2n1)C(C)C (stereo not given),118 °C
7,CN(c1ccc(O)cc1)c1cc2ccc(Cl)cc2c(O)n1,266 °C
8,CS(=O)(=O)c1cc(C(F)(F)F)ns1,93 to 94 °C
9,CCOC(=O)c1csc(-c2ccc([N+](=O)[O-])cc2)n1,156 to 158 °C
10,O=C(NC12CC3CC(CC(C3)C1)C2)c1cccc2c1OCCO2,137 °C
11,O=C(/C=C/c1ccc(O)cc1)CC(=O)/C=C/c1ccccc1CO,173 to 180 °C
12,CCCC1(CCC)CCC2(CC1)CC(=O)N(CCC#N)C2=O,117 to 118 °C
13,COc1ccc(-c2nc(C(N)=O)oc2-c2ccc(OC)cc2)cc1,133 to 135 °C
14,O=C1NC(=Cc2ccccc2F)C(=O)N1c1cc(F)ccc1F,180 to 183 °C
15,NC(=O)c1cc(Br)ccc1Nc1ccncc1,298 to 299 °C
16,CS(=O)(=O)c1ccc(-n2nc(C(F)(F)F)cc2-c2nc3ccc(Cl)cc3s2)cc1,195 to 196 °C
17,NC(CCO)C1(c2ccc(Cl)cc2)CCC1 (stereo not given),98 to 99 °C
18,O=c1ccccn1[C@@H]1c2cc(C(F)(F)C(F)(F)C(F)(F)F)ccc2OC(CF)(CF)[C@H]1O (relative stereo),111 to 113 °C
19,O=C(Nc1cc(-c2nc3ccccc3[nH]2)ccn1)c1ccccc1,145 to 146 °C
20,Fc1cccc2c1CN(NC1=NCCN1)C2,168 to 170 °C
21,C#CCOc1cc(Oc2c(F)cccc2F)ncn1,67.2 °C
22,CC1NC(=O)NN=C1c1ccc(N2CCCC2=O)cc1 (stereo not given),278 to 280 °C
23,Cc1ccc(C(=O)Nc2c(NC(=O)CN3CCN(c4ncccn4)CC3)ccc3c2C(=O)c2ccccc2C3=O)cc1,267 to 268 °C
24,O=S(=O)(O)c1cccc(NCc2ccc(Cl)c(Cl)c2)c1,> 275 °C
25,COc1cc2cc(CC(C)C)sc2c(Cl)c1Cl,40 to 41 °C

row,SMILES,melting point
1,OC[C@H]1O[C@H]1c1ccsc1 (racemic),63 to 65 °C
2,CC(C)(C)c1cc(C(=O)c2ncc[nH]2)cc(C(C)(C)C)c1O,286 to 288 °C
3,Oc1ccc(Nc2ccc3cc(Br)ccc3c2)cc1,179 to 180 °C
4,Cc1c(-c2ccccc2)c(OCc2ncnn2C)nn2c(-c3ccccc3)nnc12,195 °C
5,CCOC(=O)Cc1c[nH]c2nc(Nc3ccc(OC(C)C)cc3)nn2c1=O,235 to 240 °C
6,CC1(C)CN(C2CC3(C)C(CCC4C5CCC(C#N)C5(C)CCC43)CC2O)CCO1 (stereo not given),170 to 173 °C
7,Cc1oc(=O)oc1CSc1ccc(Cl)cc1,54 to 57 °C
8,N#Cc1c(N2CCN(C(=O)c3cccs3)CC2)c2cscc2n(CC(=O)c2ccccc2)c1=O,308 °C
9,CCCCN(CCCC)c1ccc(C=Cc2ccc(C=CC3=C(C#N)C(=C(C#N)C#N)OC3(C)C)cc2)cc1,224 to 226 °C
10,CCCC[C@H](NC(=O)[C@H](CC(C)C)NC(=O)OC(C)(C)C)C(=O)CCCc1cccs1,70 to 72 °C
11,CCOC(=O)/C=C/c1ccc(O)c([N+](=O)[O-])c1,114 to 115 °C
12,Cn1cnc(-c2ccccc2)c1-c1nn(-c2cccc(C(F)(F)F)c2)ccc1=O,214 to 216 °C
13,O=C(CC1CCCCCC1=O)c1ccc([N+](=O)[O-])cc1 (stereo not given),79 to 84 °C
14,Clc1ccc2c(Cl)c3c(nc2c1)CCCC3,85 to 87 °C
15,Clc1ccc2c(c1)C(c1ccccc1)=NCc1n[nH]nc1-2,199 to 200 °C
16,CCCCCCCCC=CC(=O)c1c(C)[nH]n(-c2ccccc2)c1=O,40 °C
17,CC(C)c1ncc(C(=O)O)nc1C(C)C,128 to 130 °C
18,CCCCCCC(C)(C)c1ccc(C2=CC(O)CCC2)c(O)c1 (stereo not given),87 to 88 °C
19,Cc1nc(-c2nc(C)c(-c3ccnc(Nc4cc(Cl)c(N5CCOCC5)c(Cl)c4)n3)s2)cs1,> 300 °C
20,CCN1C(=O)C(C)(C)C(=O)N(C)c2cc(CCN(CCn3cc(C)c4oc(C)cc4c3=O)Cc3cc(C)nn3C)ccc21,168 to 170 °C
21,Cc1c(Cc2cccnc2)c2ccccc2n1CCc1nnn[nH]1,173 °C
22,C=C1CCCCCCCSC[C@@H](C(=O)O)NC1=O,184 to 186 °C
23,CN=C(NC#N)NCCSCc1ccc(CNC)o1,81 to 85 °C
24,O=C(Nc1cccnc1O)C1CCCC1,242 to 243 °C
25,CC(=O)OC1CSC(Oc2cccc(-c3ccc(F)nc3)c2)C(OC(C)=O)C1OC(C)=O (stereo not given),115 °C
